Article PMC3626541, “A first in human, safety, pharmacokinetics, and clinical activity phase I study of once weekly administration of the Hsp90 inhibitor ganetespib (STA-9090) in patients with solid malignancies” (BMC Cancer, 2013)
Entries after “also recorded” stand apart in the source; their conditions may differ.

Legend:
Assay type in all cases: in vivo, human
advanced solid tumors = experiment: Tumor response (RECIST v1.0); conditions: for Disease control rate (≥ 8 weeks): complete and partial responses, and stable disease ≥ 8 weeks; for Disease control rate (≥ 16 weeks): complete and partial responses, and stable disease ≥ 16 weeks; for Best response: Complete response / Best response: Non-evaluable / Best response: Partial response / Best response: Progressive disease / Best response: Stable disease: investigator-evaluated
Procedure: Patients’ demographics and medical history were recorded at baseline. Physical examination and PS were assessed at baseline and on Day 1 of each cycle. Adverse events (AEs), vital signs, hematology and chemistry values, and creatinine clearance were assessed at baseline and weekly during treatment. Toxicity was graded using National Cancer Institute Common Terminology Criteria for Adverse Events (NCI CTCAE), version 3.0. An electrocardiogram (ECG) was performed at baseline, before and after treatment on Days 1 and 15 of Cycles 1 and 2, and on Day 15 of even-numbered cycles thereafter. CT scans were done at baseline and every 8 weeks thereafter. Tumor response was assessed using Response Evaluation Criteria in Solid Tumors (RECIST, v1.0), with confirmation of responses performed at least 4 weeks later.

HSP70 protein in plasma = HSP70 protein in plasma by ELISA; conditions: for Peak circulating plasma HSP70 level: NSCLC patient, 150 mg/m^2
Procedure: Pre-dose blood samples on Days 1, 8 and 15 of Cycle 1 and 2 were collected for assessment of HSP70 protein in plasma by ELISA. Assays were performed using high sensitivity HSP70 ELISA kits (Assay Design, Ann Arbor, Michigan), with a sensitivity limit as low as 90 pg/ml, according to manufacturers’ instructions. Results were detected using a microplate ELISA reader at 450 nm with a correction wavelength of 540 nm. Concentrations of HSP70 were normalized to the total protein in each plasma sample.

[1] = Plasma pharmacokinetics (HPLC-MS/MS, non-compartmental)
Procedure: Blood samples were taken for ganetespib plasma concentration determination on Days 1 and 15 of Cycle 1 pre-dose, 0.5, 1, 1.5, 2, 4, 6, 8 and 24 h after infusion initiation. Samples were also drawn pre-dose and at 1 h, on Day 8 of Cycle 1 and Days 1, 8 and 15 of subsequent cycles. Plasma was separated and stored at a −70°C until analysis. Analyses were performed by a validated HPLC-MS/MS method under GLP conditions at Synta Pharmaceuticals Corp. Calibration curve coefficients of determination (r^2) ranged from 0.9897 to 0.9992. Back-calibrated calibration standards were in good agreement with QC samples with bias ≤ ± 3%, and calibration-curve r^2 variation was ≤ ± 6.5% across a concentration range of 0.100 through 100 ng/ml.
Pharmacokinetic parameters were computed non-compartmentally using standard methods within a validated installation of WinNonlin (v4.1, Pharsight Corporation, St. Louis, MO). Parameters included the maximum concentration (Cmax), area under the plasma concentration versus time curve (AUC), time of maximum concentration (Tmax), and terminal elimination half-life (t1/2).

[2] = one NSCLC patient, 150 mg/m^2, BRAF G469A mutation
[3] = 1-hour IV infusion, across doses

CC(C)c1cc(-c2n[nH]c(=O)n2-c2ccc3c(ccn3C)c2)c(O)cc1O [Ganetespib, 5-[2,4-dihydroxy-5-(1 methyl-ethyl)phenyl]-2,4 dihydro-4-(1-methyl-1H indol-5 yl)-3H-1,2,4 triazole-3-one]
Disease control rate (≥ 8 weeks) (advanced solid tumors; 259 mg/m^2, n = 6): 2 (33.3) n (%) | Disease control rate (≥ 16 weeks) (advanced solid tumors; 259 mg/m^2, n = 6): 2 (33.3) n (%) | Best response: Complete response (advanced solid tumors; 259 mg/m^2, n = 6): 0 n (%) | Best response: Non-evaluable (advanced solid tumors; 259 mg/m^2, n = 6): 1 (16.7) n (%) | Best response: Partial response (advanced solid tumors; 259 mg/m^2, n = 6): 0 n (%) | Best response: Progressive disease (advanced solid tumors; 259 mg/m^2, n = 6): 3 (50) n (%) | Best response: Stable disease (advanced solid tumors; 259 mg/m^2, n = 6): 2 (33.3) n (%) | Disease control rate (≥ 8 weeks) (advanced solid tumors; 7-114 mg/m^2, n = 25): 11 (44) n (%) | Disease control rate (≥ 16 weeks) (advanced solid tumors; 7-114 mg/m^2, n = 25): 5 (20) n (%) | Best response: Complete response (advanced solid tumors; 7-114 mg/m^2, n = 25): 0 n (%) | Best response: Non-evaluable (advanced solid tumors; 7-114 mg/m^2, n = 25): 4 (16) n (%) | Best response: Partial response (advanced solid tumors; 7-114 mg/m^2, n = 25): 1 (4) n (%) | Best response: Progressive disease (advanced solid tumors; 7-114 mg/m^2, n = 25): 10 (40) n (%) | Best response: Stable disease (advanced solid tumors; 7-114 mg/m^2, n = 25): 10 (40) n (%) | Patients with SD for at least 8 weeks (advanced solid tumors; 10 patients with NSCLC): 60% | Duration of SD (range) (advanced solid tumors; 23 patients with SD): 46 to 563 days | Disease control rate (≥ 8 weeks) (advanced solid tumors; 150-216 mg/m^2, n = 22): 11 (50) n (%) | Disease control rate (≥ 16 weeks) (advanced solid tumors; 150-216 mg/m^2, n = 22): 6 (27.3) n (%) | Best response: Complete response (advanced solid tumors; 150-216 mg/m^2, n = 22): 0 n (%) | Best response: Non-evaluable (advanced solid tumors; 150-216 mg/m^2, n = 22): 6 (27.3) n (%) | Best response: Partial response (advanced solid tumors; 150-216 mg/m^2, n = 22): 0 n (%) | Best response: Progressive disease (advanced solid tumors; 150-216 mg/m^2, n = 22): 5 (22.7) n (%) | Best response: Stable disease (advanced solid tumors; 150-216 mg/m^2, n = 22): 11 (50) n (%) | Disease control rate (≥ 8 weeks) (advanced solid tumors; Overall response, n = 53): 24 (45.3) n (%) | Disease control rate (≥ 16 weeks) (advanced solid tumors; Overall response, n = 53): 13 (24.5) n (%) | Best response: Complete response (advanced solid tumors; Overall response, n = 53): 0 n (%) | Best response: Non-evaluable (advanced solid tumors; Overall response, n = 53): 11 (20.8) n (%) | Best response: Partial response (advanced solid tumors; Overall response, n = 53): 1 (1.9) n (%) | Best response: Progressive disease (advanced solid tumors; Overall response, n = 53): 18 (34) n (%) | Best response: Stable disease (advanced solid tumors; Overall response, n = 53): 23 (43.4) n (%) | Disease control rate (PR and SD ≥ 16 weeks) (advanced solid tumors; all patients): 24.5% | Patients with SD (advanced solid tumors; all patients): 43.4% | Doses generally associated with disease stabilization (advanced solid tumors; heavily pre-treated patients with metastatic cancers): higher than 80 mg/m^2 | Patients with PR (advanced solid tumors; metastatic colorectal cancer): One patient | Maximum reduction in target lesions (advanced solid tumors; [2]): 26.5% | Time on study (advanced solid tumors; [2]): 13 months | Maximum reduction in target lesions (advanced solid tumors; one patient with metastatic GIST, 216 mg/m^2, PDGFRA^D842V exon 18 mutation): 18% | Duration of disease stabilization (advanced solid tumors; one patient with neuroendocrine tumor, 259 mg/m^2): over 20 months | Peak circulating plasma HSP70 level (HSP70 protein in plasma; Cycle 1): 750 ng/g | Peak circulating plasma HSP70 level (HSP70 protein in plasma; Cycle 2): 730 ng/g | Hsp70 plasma protein levels versus baseline (HSP70 protein in plasma; Days 8 and 15, pre-dose, majority of patients): significantly elevated | Dose levels at which Hsp70 induction saturates (HSP70 protein in plasma; mean maximum increase of HSP70 in Cycle 1): above 180 mg/m^2 | Persistence of elevated HSP70 protein plasma levels following drug exposure (HSP70 protein in plasma; post treatment): over a week; also recorded: at least a week | Tmax occurrence at the time of the 0.5 h sample ([1]; 1-hour IV infusion): 39 % of drug administrations | Mean steady state volume of distribution (Vss) [1, 3]: 107 ± 98 L/m^2 | Plasma drug clearance [1, 3]: 28.55 ± 9.33 L/h/m^2 | Tmax ([1]; human, plasma, 1-hour IV infusion): 0.79 h | Vd ([1]; human, plasma, 1-hour IV infusion, across doses, read-out: Mean steady state volume of distribution (Vss)): 196 ± 172 L | clearance ([1]; human, plasma, 1-hour IV infusion, across doses, read-out: Plasma drug clearance (converted)): 877 mL/min | half-life ([1]; human, plasma, 1-hour IV infusion, across doses, read-out: Terminal t1/2 (mean ± SD) (converted)): ~7.54 h | Drug accumulation ([1]; once-weekly doses, Day 1 vs Day 15): no apparent drug accumulation | Coefficient of variation for clearance ([1]; overall variability in exposure): 33.8% | Plasma concentration as % of Cmax ([1]; within 8 to 10 h): ~1 % of Cmax | Plasma concentration as % of Cmax ([1]; within 1 h of infusion termination): approximately 10 % of Cmax
